Experimental data taken from article PMC10046369, “Low-Affinity/High-Selectivity Dopamine Transport Inhibition Sufficient to Rescue Cognitive Functions in the Aging Rat” (Biomolecules, 2023).

Key:
Experiment in all cases: biochemical
Design in all cases: KINOMEscan competition binding panel, per cent of control
Conditions in all cases: read-out: %Ctrl @ 2800nM
[1] = target: T1, MEK6 (Homo sapiens, UniProt P52564)
T1 construct: gene MAP2K6
Outline: (§1)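 Competition binding panel (KINOMEscan) across 450 human kinases and disease-relevant mutants, run to the contractor's standard protocol. Values are % control: (test signal − positive control signal)/(negative control signal − positive control signal) × 100, with lower values indicating stronger binding.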

[2] = target: PLK2 (Homo sapiens, UniProt Q9NYY3)
Outline: as §1

[3] = target: T2, RSK2(Kin.Dom.1-N-terminal) (Homo sapiens, UniProt P51812)
T2 construct: gene RPS6KA3; Kin.Dom.1-N-terminal
Outline: as §1

[4] = target: T3, MKK7 (Homo sapiens, UniProt O14733)
T3 construct: gene MAP2K7
T3 sequence (O14733 whole entry): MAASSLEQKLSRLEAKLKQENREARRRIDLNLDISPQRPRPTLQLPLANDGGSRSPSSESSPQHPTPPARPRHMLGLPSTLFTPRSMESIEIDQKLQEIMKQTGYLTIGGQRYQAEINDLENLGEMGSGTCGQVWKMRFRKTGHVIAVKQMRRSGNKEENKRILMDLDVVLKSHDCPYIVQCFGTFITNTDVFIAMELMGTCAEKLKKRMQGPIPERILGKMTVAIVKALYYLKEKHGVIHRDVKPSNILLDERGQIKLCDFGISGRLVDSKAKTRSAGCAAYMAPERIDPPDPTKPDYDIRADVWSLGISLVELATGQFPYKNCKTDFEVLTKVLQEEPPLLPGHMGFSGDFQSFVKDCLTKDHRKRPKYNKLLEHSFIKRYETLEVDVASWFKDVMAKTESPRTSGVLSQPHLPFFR
Outline: as §1

[5] = target: ERBB2 (Homo sapiens, UniProt P04626)
Outline: as §1

[6] = target: T4, ABL1(F317I)-phosphorylated (Homo sapiens, UniProt P00519, F317I)
T4 construct: phosphorylated
Outline: as §1

[7] = target: IRAK1 (Homo sapiens, UniProt P51617)
Outline: as §1

[8] = target: T5, p38-beta (Homo sapiens, UniProt Q15759)
T5 construct: gene MAPK11
T5 sequence (Q15759 whole entry): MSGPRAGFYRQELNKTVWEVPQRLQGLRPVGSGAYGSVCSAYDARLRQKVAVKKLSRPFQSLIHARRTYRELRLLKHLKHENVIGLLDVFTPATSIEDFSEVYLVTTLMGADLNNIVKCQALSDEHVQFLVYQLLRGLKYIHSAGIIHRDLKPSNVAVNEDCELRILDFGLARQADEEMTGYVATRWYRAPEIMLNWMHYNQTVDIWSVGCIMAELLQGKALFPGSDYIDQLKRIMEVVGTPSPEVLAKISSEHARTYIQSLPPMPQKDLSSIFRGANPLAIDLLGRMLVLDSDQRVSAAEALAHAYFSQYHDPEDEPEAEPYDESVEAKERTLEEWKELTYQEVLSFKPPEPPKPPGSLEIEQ
Outline: as §1

[9] = target: CDKL3 (Homo sapiens, UniProt Q8IVW4)
Sequence of CDKL3 (Q8IVW4 whole entry): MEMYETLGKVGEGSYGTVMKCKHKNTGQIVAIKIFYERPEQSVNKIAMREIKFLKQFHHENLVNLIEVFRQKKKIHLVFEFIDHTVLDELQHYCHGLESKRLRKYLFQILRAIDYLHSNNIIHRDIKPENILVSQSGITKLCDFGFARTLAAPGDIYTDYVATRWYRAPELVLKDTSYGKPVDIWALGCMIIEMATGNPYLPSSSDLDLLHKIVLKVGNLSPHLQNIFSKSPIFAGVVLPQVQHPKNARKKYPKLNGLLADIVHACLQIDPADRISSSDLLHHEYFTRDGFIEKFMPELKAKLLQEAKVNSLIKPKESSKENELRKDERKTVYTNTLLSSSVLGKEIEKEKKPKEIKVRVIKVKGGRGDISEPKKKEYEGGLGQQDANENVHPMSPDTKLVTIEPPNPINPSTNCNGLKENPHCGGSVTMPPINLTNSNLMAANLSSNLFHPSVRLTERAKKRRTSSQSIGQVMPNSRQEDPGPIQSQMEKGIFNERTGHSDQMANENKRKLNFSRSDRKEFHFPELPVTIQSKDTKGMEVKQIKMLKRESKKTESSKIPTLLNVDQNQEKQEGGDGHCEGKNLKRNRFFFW
Outline: as §1

[10] = target: FLT3(K663Q) (Homo sapiens, UniProt P36888, K663Q)
Outline: as §1

[11] = target: CDKL5 (Homo sapiens, UniProt O76039)
Outline: as §1

[12] = target: FLT3(ITD) (Homo sapiens, UniProt P36888, ITD)
Outline: as §1

[13] = target: T6, ABL1(Q252H)-phosphorylated (Homo sapiens, UniProt P00519, Q252H)
T6 construct: phosphorylated
Outline: as §1

[14] = target: EPHA1 (Homo sapiens, UniProt P21709)
Outline: as §1

[15] = target: NEK2 (Homo sapiens, UniProt P51955)
Sequence of NEK2 (P51955 whole entry): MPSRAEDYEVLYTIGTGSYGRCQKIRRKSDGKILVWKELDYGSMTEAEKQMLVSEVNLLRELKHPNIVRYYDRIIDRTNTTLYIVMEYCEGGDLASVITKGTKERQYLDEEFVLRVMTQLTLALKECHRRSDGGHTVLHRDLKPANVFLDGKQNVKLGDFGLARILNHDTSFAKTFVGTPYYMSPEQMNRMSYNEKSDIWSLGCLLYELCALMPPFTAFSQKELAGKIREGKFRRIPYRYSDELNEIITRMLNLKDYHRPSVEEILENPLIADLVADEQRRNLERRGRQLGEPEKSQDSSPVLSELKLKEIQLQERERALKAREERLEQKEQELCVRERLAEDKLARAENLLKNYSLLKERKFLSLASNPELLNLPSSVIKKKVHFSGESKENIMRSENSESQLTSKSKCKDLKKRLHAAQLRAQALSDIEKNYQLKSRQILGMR
Outline: as §1

[16] = target: PLK4 (Homo sapiens, UniProt O00444)
Sequence of PLK4 (O00444 whole entry): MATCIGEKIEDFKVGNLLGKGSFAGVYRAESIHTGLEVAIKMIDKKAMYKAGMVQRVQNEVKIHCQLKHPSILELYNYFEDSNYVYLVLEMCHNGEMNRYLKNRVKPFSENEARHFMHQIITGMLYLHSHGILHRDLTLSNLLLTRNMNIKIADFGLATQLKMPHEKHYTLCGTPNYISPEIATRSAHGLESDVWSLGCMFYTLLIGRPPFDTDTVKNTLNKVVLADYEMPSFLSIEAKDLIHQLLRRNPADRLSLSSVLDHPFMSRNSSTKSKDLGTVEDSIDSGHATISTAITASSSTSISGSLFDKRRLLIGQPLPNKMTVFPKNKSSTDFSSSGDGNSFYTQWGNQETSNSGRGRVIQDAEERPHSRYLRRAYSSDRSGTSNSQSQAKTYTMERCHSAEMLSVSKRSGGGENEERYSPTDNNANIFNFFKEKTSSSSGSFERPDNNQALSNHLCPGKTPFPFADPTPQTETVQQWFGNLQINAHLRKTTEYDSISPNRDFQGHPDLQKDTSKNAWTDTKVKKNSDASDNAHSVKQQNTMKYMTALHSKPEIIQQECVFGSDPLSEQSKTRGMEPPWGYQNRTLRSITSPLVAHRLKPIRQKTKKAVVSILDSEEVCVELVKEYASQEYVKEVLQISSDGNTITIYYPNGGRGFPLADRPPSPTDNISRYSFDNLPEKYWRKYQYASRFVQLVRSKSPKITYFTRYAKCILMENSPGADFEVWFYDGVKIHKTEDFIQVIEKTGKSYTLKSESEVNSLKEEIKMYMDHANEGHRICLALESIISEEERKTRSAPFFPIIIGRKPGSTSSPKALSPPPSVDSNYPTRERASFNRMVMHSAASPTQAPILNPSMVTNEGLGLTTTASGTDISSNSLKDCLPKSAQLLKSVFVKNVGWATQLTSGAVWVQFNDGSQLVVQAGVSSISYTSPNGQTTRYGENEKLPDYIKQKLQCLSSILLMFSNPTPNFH
Outline: as §1

[17] = target: DDR2 (Homo sapiens, UniProt Q16832)
Outline: as §1

[18] = target: PIK3C2G (Homo sapiens, UniProt O75747)
Outline: as §1

[19] = target: MAP4K2 (Homo sapiens, UniProt Q12851)
Outline: as §1

[20] = target: GSK3A (Homo sapiens, UniProt P49840)
Sequence of GSK3A (P49840 whole entry): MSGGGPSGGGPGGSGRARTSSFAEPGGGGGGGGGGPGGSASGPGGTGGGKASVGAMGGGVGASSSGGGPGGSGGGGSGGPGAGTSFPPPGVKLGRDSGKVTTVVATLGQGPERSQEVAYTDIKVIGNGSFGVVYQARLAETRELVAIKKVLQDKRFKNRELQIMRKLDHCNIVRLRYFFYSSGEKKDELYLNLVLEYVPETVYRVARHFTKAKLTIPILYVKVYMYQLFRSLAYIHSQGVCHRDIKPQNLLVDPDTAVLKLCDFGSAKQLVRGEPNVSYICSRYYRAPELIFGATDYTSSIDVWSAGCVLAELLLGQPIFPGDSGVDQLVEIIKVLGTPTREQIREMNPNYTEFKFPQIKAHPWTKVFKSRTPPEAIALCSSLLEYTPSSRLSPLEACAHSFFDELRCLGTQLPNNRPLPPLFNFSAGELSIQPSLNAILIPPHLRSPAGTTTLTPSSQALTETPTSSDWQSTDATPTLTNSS
Outline: as §1

[21] = target: T7, DCAMKL1 (Homo sapiens, UniProt O15075)
T7 construct: gene DCLK1
Outline: as §1

[22] = target: SRPK2 (Homo sapiens, UniProt P78362)
Outline: as §1

[23] = target: MTOR (Homo sapiens, UniProt P42345)
Outline: as §1

[24] = target: LIMK2 (Homo sapiens, UniProt P53671)
Outline: as §1

[25] = target: ALK(C1156Y) (Homo sapiens, UniProt Q9UM73, C1156Y)
Sequence of ALK(C1156Y) (Q9UM73 whole entry C1156Y): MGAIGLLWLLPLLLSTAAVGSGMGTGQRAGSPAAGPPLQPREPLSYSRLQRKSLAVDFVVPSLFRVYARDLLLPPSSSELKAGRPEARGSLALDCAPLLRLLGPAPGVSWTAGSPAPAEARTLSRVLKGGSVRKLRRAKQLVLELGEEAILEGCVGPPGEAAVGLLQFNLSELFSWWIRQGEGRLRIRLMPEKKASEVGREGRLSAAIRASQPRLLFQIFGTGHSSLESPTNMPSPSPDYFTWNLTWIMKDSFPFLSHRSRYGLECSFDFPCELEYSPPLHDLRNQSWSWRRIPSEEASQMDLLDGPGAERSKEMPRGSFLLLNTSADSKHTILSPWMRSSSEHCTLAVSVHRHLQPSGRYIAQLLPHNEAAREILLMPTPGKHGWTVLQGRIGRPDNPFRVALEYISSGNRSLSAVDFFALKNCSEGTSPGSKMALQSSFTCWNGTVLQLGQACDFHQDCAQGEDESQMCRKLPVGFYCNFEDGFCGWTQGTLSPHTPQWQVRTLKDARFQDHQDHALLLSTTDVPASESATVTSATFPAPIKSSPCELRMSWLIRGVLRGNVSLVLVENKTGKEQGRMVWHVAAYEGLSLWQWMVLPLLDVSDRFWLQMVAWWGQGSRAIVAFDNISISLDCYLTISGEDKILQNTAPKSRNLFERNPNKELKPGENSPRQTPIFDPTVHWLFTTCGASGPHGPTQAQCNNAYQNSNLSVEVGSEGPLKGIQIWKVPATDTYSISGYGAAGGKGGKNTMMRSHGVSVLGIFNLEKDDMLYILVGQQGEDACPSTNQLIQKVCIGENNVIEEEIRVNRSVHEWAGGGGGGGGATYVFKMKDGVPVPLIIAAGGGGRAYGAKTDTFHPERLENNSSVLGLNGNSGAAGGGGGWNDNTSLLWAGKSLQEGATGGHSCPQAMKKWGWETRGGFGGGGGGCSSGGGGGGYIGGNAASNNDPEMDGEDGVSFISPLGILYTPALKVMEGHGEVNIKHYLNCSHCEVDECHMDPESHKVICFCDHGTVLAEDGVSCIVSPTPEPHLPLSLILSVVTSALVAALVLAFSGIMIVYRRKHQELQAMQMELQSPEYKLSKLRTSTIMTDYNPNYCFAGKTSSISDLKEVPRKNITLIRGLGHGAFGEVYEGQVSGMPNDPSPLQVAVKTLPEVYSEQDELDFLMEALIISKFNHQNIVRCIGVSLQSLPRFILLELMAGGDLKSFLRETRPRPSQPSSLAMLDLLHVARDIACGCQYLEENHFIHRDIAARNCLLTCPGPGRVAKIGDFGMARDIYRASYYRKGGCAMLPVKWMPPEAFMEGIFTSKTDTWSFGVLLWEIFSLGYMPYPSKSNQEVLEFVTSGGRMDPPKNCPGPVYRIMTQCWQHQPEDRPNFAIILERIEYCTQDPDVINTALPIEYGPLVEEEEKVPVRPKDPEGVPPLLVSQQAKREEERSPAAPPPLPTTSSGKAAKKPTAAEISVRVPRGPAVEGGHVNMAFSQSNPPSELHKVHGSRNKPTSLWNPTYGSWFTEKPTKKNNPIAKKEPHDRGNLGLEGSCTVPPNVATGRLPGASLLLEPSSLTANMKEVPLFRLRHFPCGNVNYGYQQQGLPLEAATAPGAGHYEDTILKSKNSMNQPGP
Outline: as §1

[26] = target: CAMKK2 (Homo sapiens, UniProt Q96RR4)
Outline: as §1

How did the remaining binding at 2.8 µM [1] turn out when `[O-][S@@+](Cc1cncs1)C(c1ccccc1)c1ccccc1` [S-CE-123, (S)-5-((Benzhydrylsulfinyl)Methyl)Thiazole] was run?
Its remaining binding at 2.8 µM is 89%.

And the remaining binding at 2.8 µM [2]?
The remaining binding at 2.8 µM was 89%.

What about the remaining binding at 2.8 µM [3] of the same molecule?
The remaining binding at 2.8 µM was 100%.

What about the remaining binding at 2.8 µM [4] of the same molecule?
The remaining binding at 2.8 µM was 100%.

What about the remaining binding at 2.8 µM [5] of the same molecule?
The remaining binding at 2.8 µM was 100%.

And the remaining binding at 2.8 µM [6]?
The remaining binding at 2.8 µM was 92%.

What about the remaining binding at 2.8 µM [7] of the same molecule?
Its remaining binding at 2.8 µM is 91%.

And the remaining binding at 2.8 µM [8]?
Its remaining binding at 2.8 µM is 94%.

And the remaining binding at 2.8 µM [9]?
Its remaining binding at 2.8 µM is 81%.

What about the remaining binding at 2.8 µM [10] of the same molecule?
Its remaining binding at 2.8 µM is 96%.

And the remaining binding at 2.8 µM [11]?
The remaining binding at 2.8 µM was 97%.

What about the remaining binding at 2.8 µM [12] of the same molecule?
Its remaining binding at 2.8 µM is 100%.

What about the remaining binding at 2.8 µM [13] of the same molecule?
Its remaining binding at 2.8 µM is 84%.

What about the remaining binding at 2.8 µM [14] of the same molecule?
The remaining binding at 2.8 µM was 96%.

And the remaining binding at 2.8 µM [15]?
Its remaining binding at 2.8 µM is 96%.

What about the remaining binding at 2.8 µM [16] of the same molecule?
Its remaining binding at 2.8 µM is 89%.

And the remaining binding at 2.8 µM [17]?
Its remaining binding at 2.8 µM is 100%.

And the remaining binding at 2.8 µM [18]?
The remaining binding at 2.8 µM was 66%.

And the remaining binding at 2.8 µM [19]?
Its remaining binding at 2.8 µM is 100%.

What about the remaining binding at 2.8 µM [20] of the same molecule?
The remaining binding at 2.8 µM was 99%.

And the remaining binding at 2.8 µM [21]?
Its remaining binding at 2.8 µM is 100%.

And the remaining binding at 2.8 µM [22]?
The remaining binding at 2.8 µM was 76%.

What about the remaining binding at 2.8 µM [23] of the same molecule?
The remaining binding at 2.8 µM was 100%.

And the remaining binding at 2.8 µM [24]?
The remaining binding at 2.8 µM was 88%.

And the remaining binding at 2.8 µM [25]?
Its remaining binding at 2.8 µM is 100%.

What about the remaining binding at 2.8 µM [26] of the same molecule?
The remaining binding at 2.8 µM was 94%.
